According to patent publication US5451573A, “Substituted cyclohexane derivatives for the treatment of diseases” (Hoechst Aktiengesellschaft, priority 1992, dated 1995):
Where two headings read alike, the source gives them in different places. Each block holds one compound with its values, some of them ahead of it.

Columns and labels:
[1] = tested on: glucose-6-phosphatase; settings: described in the literature; cited from earlier work
[2] = target: T1, glucose-6-phosphatase system (Rattus norvegicus, UniProt F7EWB7); experiment: glucose-6-phosphatase enzyme test in liver microsomes (phosphate released from glucose-6-phosphate); assay type: biochemical, male Wistar rats; settings: for IC50: pH 7.0, 20 min room temperature, concentration at which 50 % inhibition is printed, read-out: Concentration [M] giving Inhibition 50 [%]
T1 construct: from tissue; host or cells: liver microsomes of male Wistar rats
T1 sequence (F7EWB7 1-429): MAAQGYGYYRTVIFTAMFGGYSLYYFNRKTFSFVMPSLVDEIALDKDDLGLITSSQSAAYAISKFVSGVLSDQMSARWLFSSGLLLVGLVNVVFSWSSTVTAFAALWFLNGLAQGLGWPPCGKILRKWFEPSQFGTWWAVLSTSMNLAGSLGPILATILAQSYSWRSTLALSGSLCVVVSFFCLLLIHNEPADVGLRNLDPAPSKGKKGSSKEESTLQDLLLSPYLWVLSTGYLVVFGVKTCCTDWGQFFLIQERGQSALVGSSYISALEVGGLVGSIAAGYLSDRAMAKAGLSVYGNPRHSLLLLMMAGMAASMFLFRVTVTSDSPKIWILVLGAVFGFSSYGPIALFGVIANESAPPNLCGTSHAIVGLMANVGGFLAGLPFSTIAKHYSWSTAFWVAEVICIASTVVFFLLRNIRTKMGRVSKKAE
Method: The action of the compounds according to the invention on the glucose-6-phosphatase system was investigated in an enzyme test in liver microsomes.
Fresh liver organs of male Wistar rats were used for the preparation of the microsome fraction containing the glucose-6-phosphatase and processed as described in the literature [Canfield, W. K. and Arion, W. J., J. Biol. Chem. 263, 7458-7460, (1988)]. This microsome fraction can be stored at -70° C. for at least 2 months without significant loss of activity.
The detection of the glucose-6-phosphatase activity was carried out as indicated in the literature (Arion, W. J. in Methods Enzymol. 174, Academic Press 1989, pages 58-67) by determination of the phosphate released from glucose-6-phosphate. 0.1 ml of test mixture contained glucose-6-phosphate (1 mmol/l), the test substance, 0.1 mg of microsome fraction and 100 mmol/l of HEPES buffer (4-(2-hydroxyethyl)piperazine-1-ethanesulfonic acid), pH 7.0. The reaction was started by addition of the enzyme. After 20 min had passed at room temperature, the reaction was stopped by addition of 0.2 ml of phosphate reagent. The sample was incubated at 37° C. for 30 min, and the absorption (A) of the blue color was then measured at 570 nm. The inhibitory activity of the test substance resulted by comparison with a control reaction, which contained no test substance, according to the formula [formula]

[3] = tested on: lipoxygenase; settings: M. Nishizawa et al., Chem. Pharm. Bull. 34(3), 1419 (1986); cited from earlier work
[4] = rat liver microsome fraction, glucose-6-phosphate 1 mmol/l
[5] = Concentration 1 × 10^-3 M, rat liver microsome fraction, glucose-6-phosphate 1 mmol/l, pH 7.0, read-out: Inhibition [%]

SMILES: S=C=Nc1ccccc1C=Cc1ccccc1N=C=S [2,2'-diisothiocyanatostilbene]
- non-specific inhibitor of glucose-6-phosphatase (in words) [1]: non-specific inhibitors of glucose-6-phosphatase

SMILES: CC(=O)Oc1ccccc1C=Cc1ccccc1N=C=S [2-isothiocyanato-2'-acetoxystilbene]
- non-specific inhibitor of glucose-6-phosphatase (in words) [1]: non-specific inhibitors of glucose-6-phosphatase

SMILES: O=C(O)c1cc(SSc2ccc([N+](=O)[O-])c(C(=O)O)c2)ccc1[N+](=O)[O-] [5,5'-dithiobis-2-nitrobenzoic acid]
- non-specific inhibitor of glucose-6-phosphatase (in words) [1]: non-specific inhibitors of glucose-6-phosphatase

SMILES: O=C(/C=C/c1ccc(O)c(O)c1O)O[C@@H]1C[C@](O)(C(=O)O)C[C@@H](O)[C@H]1O [Compound 1]
- IC50 [2, 4]: 0.00031 M

SMILES: COc1cc(/C=C/C(=O)O[C@@H]2C[C@](O)(C(=O)O)C[C@@H](O)[C@H]2O)ccc1O [Compound 5]
- IC50 [2, 4]: 0.00041 M

SMILES: O=C(/C=C/c1ccc(O)c(F)c1)O[C@@H]1C[C@](O)(C(=O)O)C[C@@H](O)[C@H]1O [Compound 10]
- inhibition at 1000 µM [2, 5]: 50%
- IC50 [2, 4]: 0.001 M

SMILES: O=C(/C=C/c1cccs1)O[C@@H]1C[C@](O)(C(=O)O)C[C@@H](O)[C@H]1O [Compound 12]
- IC50 [2, 4]: 0.00038 M

SMILES: O=C(/C=C/c1ccsc1)O[C@@H]1C[C@](O)(C(=O)O)C[C@@H](O)[C@H]1O [Compound 13]
- IC50 [2, 4]: 0.00078 M

SMILES: COc1sccc1/C=C/C(=O)O[C@@H]1C[C@](O)(C(=O)O)C[C@@H](O)[C@H]1O [Compound 14]
- inhibition at 1000 µM [2, 5]: 20%

SMILES: O=C(/C=C/c1ccc(O)c(O)c1)O[C@@H]1C[C@](O)(C(=O)O)C[C@@H](O)[C@H]1O [Compound 17, chlorogenic acid]
- inhibitor of the glucose-6-phosphatase system (in words) [2]: inhibitors of the glucose-6-phosphatase system
- IC50 [2, 4]: 0.00023 M
- inhibitor of lipoxygenase (in words) [3]: inhibitor of lipoxygenase

SMILES: COc1ccc(/C=C/C(=O)O[C@@H]2C[C@](O)(C(=O)O)C[C@@H](O)[C@H]2O)cc1OC [Compound 17α]
- IC50 [2, 4]: 0.00068 M

SMILES: O=C(/C=C/c1ccc(O)cc1)O[C@@H]1C[C@](O)(C(=O)O)[C@@H](O)[C@@H](O)[C@H]1O [Compound 20]
- inhibition at 1000 µM [2, 5]: 30%

SMILES: O=C(/C=C/c1ccc(O)cc1)O[C@@H]1C[C@@](O)(C(=O)O)[C@H](O)[C@@H](O)[C@H]1O [Compound 20α]
- inhibition at 1000 µM [2, 5]: 10%

SMILES: O=C(/C=C/c1ccc(O)cc1)O[C@@H]1C[C@H](C(=O)O)C[C@@H](O)[C@H]1O [Compound 21]
- IC50 [2, 4]: 0.00023 M

SMILES: O=C(/C=C/c1ccc(O)cc1)O[C@@H]1C[C@H](C(=O)O)CC[C@H]1O [Compound 22]
- inhibition at 1000 µM [2, 5]: 20%

SMILES: O=C(O)C[C@]1(O)C[C@@H](O)[C@@H](O)[C@H](OC(=O)/C=C/c2ccc(O)cc2)C1 [Compound 23]
- inhibition at 1000 µM [2, 5]: 30%

SMILES: O=C(O)CC[C@]1(O)C[C@@H](O)[C@@H](O)[C@H](OC(=O)/C=C/c2ccc(O)cc2)C1 [Compound 24]
- inhibition at 1000 µM [2, 5]: 45%

SMILES: O=C(/C=C/c1ccc(O)cc1)O[C@@H]1CC(C(=O)O)=C[C@@H](O)[C@H]1O [Compound 25]
- IC50 [2, 4]: 0.00025 M

SMILES: O=C(/C=C/c1ccc(O)cc1)N[C@@H]1CC(C(=O)O)=C[C@@H](O)[C@H]1O [Compound 26]
- inhibition at 1000 µM [2, 5]: 15%

SMILES: COP(=O)(CC1=C[C@@H](O)[C@@H](O)[C@H](OC(=O)/C=C/c2ccc(O)cc2)C1)OC [Compound 27]
- inhibition at 1000 µM ([2]; pH 7): 15%

SMILES: O=C(/C=C/c1ccc(O)cc1)O[C@@H]1CC(CP(=O)(O)O)=C[C@@H](O)[C@H]1O [Compound 28]
- inhibition at 1000 µM [2, 5]: 28%

SMILES: O=C(CCc1ccc(O)cc1)c1c(O)cc(O)cc1O[C@@H]1O[C@H](CO)[C@@H](O)[C@H](O)[C@H]1O [phlorhizin]
- non-specific inhibitor of glucose-6-phosphatase (in words) [1]: non-specific inhibitors of glucose-6-phosphatase

Results, then the compound that gave them:

- IC50 [2, 4]: 0.00031 M
SMILES: O=C(/C=C/c1cccc(O)c1O)O[C@@H]1C[C@](O)(C(=O)O)C[C@@H](O)[C@H]1O [Compound 2]

- IC50 [2, 4]: 0.00068 M
SMILES: O=C(/C=C/c1cc(O)ccc1O)O[C@@H]1C[C@](O)(C(=O)O)C[C@@H](O)[C@H]1O [Compound 3]

- IC50 [2, 4]: 0.00068 M
SMILES: O=C(/C=C/c1ccc(O)cc1O)O[C@@H]1C[C@](O)(C(=O)O)C[C@@H](O)[C@H]1O [Compound 4]

- IC50 [2, 4]: 0.00046 M
SMILES: COc1ccc(/C=C/C(=O)O[C@@H]2C[C@](O)(C(=O)O)C[C@@H](O)[C@H]2O)cc1O [Compound 6]

- IC50 [2, 4]: 0.00053 M
SMILES: O=C(/C=C/c1cccc(O)c1)O[C@@H]1C[C@](O)(C(=O)O)C[C@@H](O)[C@H]1O [Compound 7]

- IC50 [2, 4]: 0.00026 M
SMILES: O=C(/C=C/c1ccc(O)cc1)O[C@@H]1C[C@](O)(C(=O)O)C[C@@H](O)[C@H]1O [Compound 8]

- IC50 [2, 4]: 0.00048 M
SMILES: O=C(/C=C/c1ccccc1O)O[C@@H]1C[C@](O)(C(=O)O)C[C@@H](O)[C@H]1O [Compound 9]

- inhibition at 1000 µM [2, 5]: 20%
SMILES: O=C(/C=C/c1cccnc1)O[C@@H]1C[C@](O)(C(=O)O)C[C@@H](O)[C@H]1O [Compound 11]

- IC50 [2, 4]: 0.00046 M
SMILES: O=C(/C=C/c1c(O)ccc2ccccc12)O[C@@H]1C[C@](O)(C(=O)O)C[C@@H](O)[C@H]1O [Compound 15]

- inhibition at 1000 µM [2, 5]: 35%
SMILES: O=C(/C=C/c1ccc([N+](=O)[O-])cc1)O[C@@H]1C[C@](O)(C(=O)O)C[C@@H](O)[C@H]1O [Compound 16]

- IC50 [2, 4]: 0.00068 M
SMILES: O=C(O[C@@H]1C[C@](O)(C(=O)O)C[C@@H](O)[C@H]1O)c1ccc(OCc2ccccc2)cc1 [Compound 18]

- IC50 [2, 4]: 0.00092 M
SMILES: O=C(O[C@@H]1C[C@](O)(C(=O)O)C[C@@H](O)[C@H]1O)c1ccc(O)cc1 [Compound 19]
